In patent US20240108601A1, “TREATMENT OF MENTAL DISORDERS” (GH Research Ireland Limited, priority 2022, published 2024):

Assays:
[1] = molecular target: T1, 5-HT2A receptors (Homo sapiens, UniProt P28223); assay: Radioligand ([3H]MDL-100,907) binding to 5-HT2A receptors in post-mortem human frontal cortex membranes
T1 construct: frontal cortical membranes (400 μl; equivalent 4 mg wet weight tissue/tube) was incubated with 50 μl of 0.1 nM; tissue Edinburgh Sudden Death Brain Bank; host or cells: post-mortem human frontal cortex membranes
T1 sequence (P28223 whole entry): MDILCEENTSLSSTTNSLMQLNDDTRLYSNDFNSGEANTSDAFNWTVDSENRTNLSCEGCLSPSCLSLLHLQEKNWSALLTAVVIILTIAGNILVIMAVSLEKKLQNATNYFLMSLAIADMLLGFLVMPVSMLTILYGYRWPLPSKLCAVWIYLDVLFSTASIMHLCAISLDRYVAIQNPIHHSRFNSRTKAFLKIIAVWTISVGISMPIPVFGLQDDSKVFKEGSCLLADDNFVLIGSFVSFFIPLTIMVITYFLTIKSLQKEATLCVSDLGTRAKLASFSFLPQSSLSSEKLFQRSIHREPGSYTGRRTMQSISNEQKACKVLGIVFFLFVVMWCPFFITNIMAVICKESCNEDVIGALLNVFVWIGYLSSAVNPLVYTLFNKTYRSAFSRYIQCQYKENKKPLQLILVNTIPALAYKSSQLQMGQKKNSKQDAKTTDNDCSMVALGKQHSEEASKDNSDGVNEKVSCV

[2] = test system: human hepatocytes; assay: Metabolite identification in human hepatocyte suspension; settings: 5-MeO-DMT free base 10 μM, incubated up to 120 minutes
Method: For incubations with cryopreserved hepatocytes, the 2 mM stock solution was diluted with Leibovitz L-15 medium to a concentration of 20 μM or 2 μM. An aliquot (250 μL) of the 20 μM and 2 μM test substance formulations was added to each hepatocyte incubation sample (250 μL), as appropriate, so that the final test substance concentration in the incubations was 10 μM or 1 μM, respectively, and incubations contained less than 1% (v/v) solvent.
Incubations were performed at ca. 37° C. in a shaking water bath (total incubation volume 0.5 mL). For 1 μM, incubations were terminated after 0, 5, 10, 20, 30, 60 and 120 minutes, by the addition of ice-cold acetonitrile (0.5 mL).
The samples were vortex mixed and centrifuged at ca 13,000 rpm for 10 minutes at room temperature. Following centrifugation, the protein-free supernatants were removed for analysis.
Blank control incubations were carried out with Leibovitz L-15 medium in place of the test substance. No cells control samples were performed with Leibovitz L-15 medium in place of hepatocytes. Aliquots of the blank control samples were taken at 120 minutes, while no cells control samples were taken at 0, 30 and 120 for 1 μM incubations and at 0 and 120 minutes for 10 μM incubations.
All 1 μM incubations were performed in duplicate, while all 10 μM incubations were performed in singlet. All samples were stored at −80° C. (nominal) prior to analysis.
Prior to sample analysis a 100 μL aliquot of each sample was evaporated to near dryness under a steady stream of nitrogen at room temperature, and subsequently reconstituted in 50 μL of mobile phase A (0.1% formic acid in water). Each sample (0, 30 and 120-minute, 10 μM) was analysed using accurate mass LC-MS to determine relative levels of parent compound at each time-point, and determine the profile of metabolites formed. Appropriate blank and control samples were also analysed. The 10 and 60-minute, 10 μM incubation samples were not analysed and were stored at −80° C. (nominal). […]

[3] = Metabolic stability in Hμrel human hepatocyte co-culture; settings: human
[4] = test system: human hepatocytes (Hμrel HumanPool co-culture); assay: as above
[5] = molecular target: T2, 5-HT1A receptors (Homo sapiens, UniProt P08908); assay: Radioligand ([3H]8-OH-DPAT) binding to 5-HT1A receptors in post-mortem human hippocampus membranes
T2 construct: hippocampal membranes (400 μl; equivalent 1.25 mg wet weight tissue/tube) were incubated with 50 μl of 0.6 nM; tissue Edinburgh Sudden Death Brain Bank; host or cells: post-mortem human hippocampus membranes
T2 sequence (P08908 1-422): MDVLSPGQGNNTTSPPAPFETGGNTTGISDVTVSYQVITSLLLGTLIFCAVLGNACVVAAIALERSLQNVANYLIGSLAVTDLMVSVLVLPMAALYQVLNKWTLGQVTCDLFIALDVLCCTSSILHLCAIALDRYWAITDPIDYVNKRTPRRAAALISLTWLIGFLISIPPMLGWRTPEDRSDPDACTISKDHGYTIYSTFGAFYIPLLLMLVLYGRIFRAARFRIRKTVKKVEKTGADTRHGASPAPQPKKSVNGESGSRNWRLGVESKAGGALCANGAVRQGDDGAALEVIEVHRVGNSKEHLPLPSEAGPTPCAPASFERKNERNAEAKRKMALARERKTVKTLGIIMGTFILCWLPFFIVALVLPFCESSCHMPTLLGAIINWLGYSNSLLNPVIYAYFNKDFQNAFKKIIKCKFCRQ

SMILES: CN(C)CCc1c[nH]c2ccccc12 [DMT, N,N-dimethyltryptamine]
- Ki [1]: 117 nM

SMILES: COc1ccc2[nH]cc(CCO)c2c1 [5-methoxytryptophol, 5-Methoxyindole-3-ethanol]
- Relative Proportion of compounds identified [2]: 25%
- half-life at 1 µM [3]: 2.37 h
- hepatocyte CLint at 1 µM [3]: 16.2 µL/min/1e6 cells
- Disappearance with stromal cell controls ([4]; 0-72 h): no disappearance
- Relative LC/MS peak area remaining ([4]; 1 μM Hepatocytes, 0 h): 100%
- Relative LC/MS peak area remaining ([4]; 1 μM Hepatocytes, 1 h): 79%
- Relative LC/MS peak area remaining ([4]; 1 μM Hepatocytes, 2 h): 57%
- Relative LC/MS peak area remaining ([4]; 1 μM Hepatocytes, 4 h): 33%
- Relative LC/MS peak area remaining ([4]; 1 μM Hepatocytes, 8 h): 10%
- Relative LC/MS peak area remaining ([4]; 1 μM Hepatocytes, 24 h): 0%
- Relative LC/MS peak area remaining ([4]; 1 μM Hepatocytes, 48 h): 0%
- Relative LC/MS peak area remaining ([4]; 1 μM Hepatocytes, 72 h): 0%
- Relative LC/MS peak area remaining ([4]; 1 μM Stromal cells, 0 h): 100%
- Relative LC/MS peak area remaining ([4]; 1 μM Stromal cells, 4 h): 97%
- Relative LC/MS peak area remaining ([4]; 1 μM Stromal cells, 8 h): 107%
- Relative LC/MS peak area remaining ([4]; 1 μM Stromal cells, 24 h): 94%
- Relative LC/MS peak area remaining ([4]; 1 μM Stromal cells, 48 h): 102%
- Relative LC/MS peak area remaining ([4]; 1 μM Stromal cells, 72 h): 104%
- Relative LC/MS peak area remaining ([4]; 10 μM Hepatocytes, 0 h): 100%
- Relative LC/MS peak area remaining ([4]; 10 μM Hepatocytes, 1 h): 87%
- Relative LC/MS peak area remaining ([4]; 10 μM Hepatocytes, 2 h): 81%
- Relative LC/MS peak area remaining ([4]; 10 μM Hepatocytes, 4 h): 68%
- Relative LC/MS peak area remaining ([4]; 10 μM Hepatocytes, 8 h): 42%
- Relative LC/MS peak area remaining ([4]; 10 μM Hepatocytes, 24 h): 1%
- Relative LC/MS peak area remaining ([4]; 10 μM Hepatocytes, 48 h): 0%
- Relative LC/MS peak area remaining ([4]; 10 μM Hepatocytes, 72 h): 0%
- Relative LC/MS peak area remaining ([4]; 10 μM Stromal cells, 0 h): 100%
- Relative LC/MS peak area remaining ([4]; 10 μM Stromal cells, 4 h): 99%
- Relative LC/MS peak area remaining ([4]; 10 μM Stromal cells, 8 h): 105%
- Relative LC/MS peak area remaining ([4]; 10 μM Stromal cells, 24 h): 86%
- Relative LC/MS peak area remaining ([4]; 10 μM Stromal cells, 48 h): 98%
- Relative LC/MS peak area remaining ([4]; 10 μM Stromal cells, 72 h): 104%
- Metabolic turnover in the presence of hepatocytes ([4]; 24h): complete disappearance
- Predicted hepatic extraction ratio ([4]; human): 67%

SMILES: CN(C)CCc1c[nH]c2cccc(O)c12 [psilocin]
- Ki [5]: 48 nM
